{"source": "patent US5721214A", "about": "“Inhibitors of factor Xa” (COR Therapeutics, Inc., priority 1995, dated 1998)", "key": {"factor Xa": {"molecular_target": "factor Xa (Homo sapiens, UniProt P00742)", "sequence (P00742 235-488 limits assumed)": "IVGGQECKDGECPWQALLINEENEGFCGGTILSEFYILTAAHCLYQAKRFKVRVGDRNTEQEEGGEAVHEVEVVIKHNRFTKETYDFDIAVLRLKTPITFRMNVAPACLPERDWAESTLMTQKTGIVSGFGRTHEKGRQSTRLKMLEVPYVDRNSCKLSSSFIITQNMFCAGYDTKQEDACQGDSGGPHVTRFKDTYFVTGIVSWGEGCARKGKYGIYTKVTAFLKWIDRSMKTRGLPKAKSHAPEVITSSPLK", "sequence (P00742 41-179 limits assumed)": "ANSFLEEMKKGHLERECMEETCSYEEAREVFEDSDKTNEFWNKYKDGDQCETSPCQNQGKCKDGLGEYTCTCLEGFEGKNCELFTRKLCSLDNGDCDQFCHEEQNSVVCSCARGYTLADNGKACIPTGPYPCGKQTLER", "assay": "Factor Xa amidolytic assay (chromogenic substrate S-2765)", "format": "biochemical"}, "prothrombinase complex": {"molecular_target": "prothrombinase complex (Homo sapiens, UniProt P00742)", "sequence (P00742 235-488 limits assumed)": "as the sequence (P00742 235-488 limits assumed) above", "sequence (P00742 41-179 limits assumed)": "as the sequence (P00742 41-179 limits assumed) above", "assay": "Prothrombinase inhibition assay, plasma free system", "format": "biochemical", "conditions": "5 min preincubation, factor Xa 0.5 nM, factor Va 2 nM, pH 7.5; read-out: Inhibitory Activity (IC50) Prothrombinase"}, "[1]": {"assay": "Pharmacokinetics/Pharmacodynamics in rabbits after I.V. bolus", "format": "in vivo", "conditions": "rabbit"}, "[2]": {"test_system": "thrombus growth in abdominal vena cava", "assay": "Rabbit deep vein thrombosis model", "format": "in vivo", "conditions": "for Hct / PLT / RBC / WBC: mean±SD", "text": "Haemost. […] Rabbits were anesthetized with I.M. injections of Ketamine, Xylazine, and Acepromazine cocktail."}, "thrombin": {"molecular_target": "T1, thrombin (Homo sapiens, UniProt P00734)", "T1 construct": "The formation of thrombin is the result of the proteolytic cleavage of its precursor prothrombin", "assay": "Thrombin amidolytic assay (Chromozym TH)", "format": "biochemical"}, "[3]": {"conditions": "5 min preincubation, room temperature, pH 7.5, read-out: Inhibitory Activity (IC50) Factor Xa"}, "[4]": {"conditions": "5 min preincubation, room temperature, pH 7.5, read-out: Inhibitory Activity (IC50) Thrombin"}}, "note": "Read-outs that look alike come from different tables or passages of the source. Numbered stars: 1 amine (or outer) side, 2 acyl side, 3 side chain; on linkers, the order of the positions; unused ones are H or OH. Square brackets hold non-standard residues; d marks the D form. Peptide text beside a SMILES is read from it. * marks the point of attachment. d(hArg) = N=C(N)NCCCC[C@@H](N)C(=O)O; Hydrocinnamoyl = O=C(CCc1ccccc1)*; dCit = NC(=O)NCCC[C@@H](N)C(=O)O; Suc = O=C(CCC(=O)[*:2])[*:1]; Boc = CC(C)(C)OC(=O)*; Aib = CC(C)(N)C(=O)O"}
{"smiles": "CC(C)(C)OC(=O)N[C@H](CCCNC(N)=O)C(=O)NCC(=O)N[C@H](C=O)CCCN=C(N)N", "note": "[Boc--D--Cit--Gly--Arg--H, Boc-D-Cit-Gly-Arg-H] (Boc-[dCit]-Gly-Arg-aldehyde)", "values": [{"measurement": "IC50", "setting": "factor Xa", "result": 5000, "unit": "nM"}, {"measurement": "IC50", "setting": "prothrombinase complex", "result": 44000, "unit": "nM"}]}
{"smiles": "CC(C)(C)OC(=O)N[C@H](CCCN=C(N)N)C(=O)NCC(=O)N[C@H](C=O)CCCN=C(N)N", "note": "[Boc--D--Arg--Gly--Arg--H, Boc-D-Arg-Gly-Arg-H] (Boc-[dR]-Gly-Arg-aldehyde)", "values": [{"measurement": "changes in hematological parameters as compared to saline controls", "setting": "[1]; 2.0 mg/kg I.V. bolus", "result": "no significant changes"}, {"measurement": "mean clearance value (CL)", "setting": "[1]; I.V.", "result": 1.16, "unit": "mL/min/kg"}, {"measurement": "volume of distribution", "setting": "[1]; I.V.", "result": 0.1183, "unit": "L/kg"}, {"measurement": "mean plasma half-life", "setting": "[1]; I.V., n=3", "result": 1.18, "unit": "h"}, {"measurement": "Hct", "setting": "[2]; 200 + 1.98 μg/kg + μg/kg/min", "result": "36.9 ± 3.90", "unit": "%"}, {"measurement": "PLT", "setting": "[2]; 200 + 1.98 μg/kg + μg/kg/min", "result": "393 ± 84 10^3 /μL"}, {"measurement": "RBC", "setting": "[2]; 200 + 1.98 μg/kg + μg/kg/min", "result": "5.69 ± 0.14 10^6 /μL"}, {"measurement": "WBC", "setting": "[2]; 200 + 1.98 μg/kg + μg/kg/min", "result": "4.45 ± 0.97 10^3 /μL"}, {"measurement": "Hct", "setting": "[2]; 600 + 5.94 μg/kg + μg/kg/min", "result": "35.3 ± 3.01", "unit": "%"}, {"measurement": "PLT", "setting": "[2]; 600 + 5.94 μg/kg + μg/kg/min", "result": "442 ± 81 10^3 /μL"}, {"measurement": "RBC", "setting": "[2]; 600 + 5.94 μg/kg + μg/kg/min", "result": "5.74 ± 0.48 10^6 /μL"}, {"measurement": "WBC", "setting": "[2]; 600 + 5.94 μg/kg + μg/kg/min", "result": "3.87 ± 0.65 10^3 /μL"}, {"measurement": "Hct", "setting": "[2]; 1000 + 9.90 μg/kg + μg/kg/min", "result": "35.5 ± 1.01", "unit": "%"}, {"measurement": "PLT", "setting": "[2]; 1000 + 9.90 μg/kg + μg/kg/min", "result": "375 ± 73 10^3 /μL"}, {"measurement": "RBC", "setting": "[2]; 1000 + 9.90 μg/kg + μg/kg/min", "result": "5.71 ± 0.28 10^6 /μL"}, {"measurement": "WBC", "setting": "[2]; 1000 + 9.90 μg/kg + μg/kg/min", "result": "5.09 ± 1.61 10^3 /μL"}, {"measurement": "Hct", "setting": "[2]; 1500 + 14.85 μg/kg + μg/kg/min", "result": "36.0 ± 3.31", "unit": "%"}, {"measurement": "PLT", "setting": "[2]; 1500 + 14.85 μg/kg + μg/kg/min", "result": "433 ± 22 10^3 /μL"}, {"measurement": "RBC", "setting": "[2]; 1500 + 14.85 μg/kg + μg/kg/min", "result": "5.80 ± 0.50 10^6 /μL"}, {"measurement": "WBC", "setting": "[2]; 1500 + 14.85 μg/kg + μg/kg/min", "result": "4.82 ± 1.01 10^3 /μL"}, {"measurement": "effects on hematological parameters as compared to saline controls", "setting": "[2]; bolus + infusion", "result": "no significant effects"}]}
{"smiles": "CC(C)(C)OC(=O)N[C@H](CCCCNC(=N)N)C(=O)NCC(=O)N[C@H](C=O)CCCNC(=N)N", "note": "[Boc--D--Har--Gly--Arg--H, Boc-D-Har-Gly-Arg-H] (Boc-[d(hArg)]-Gly-Arg-aldehyde)", "values": [{"measurement": "IC50", "setting": "factor Xa; [3]", "result": 100, "unit": "nM"}, {"measurement": "IC50", "setting": "thrombin; [4]", "result": 405000, "unit": "nM"}, {"measurement": "IC50", "setting": "prothrombinase complex", "result": 173, "unit": "nM"}]}
{"smiles": "N=C(N)NCCC[C@@H](C=O)NC(=O)CNC(=O)[C@@H](CCCNC(=N)N)NC(=O)C(=O)O", "note": "[HOOCCO--D--Arg--Gly--Arg--H, Oxaloyl-D-Arg-Gly-Arg-H]", "values": [{"measurement": "IC50", "setting": "prothrombinase complex", "result": 630, "unit": "nM"}]}
{"smiles": "N=C(N)NCCC[C@@H](C=O)NC(=O)CNC(=O)[C@@H](CCCNC(=N)N)NC(=O)CCC(=O)O", "note": "[HOOC(CH2)2 CO--D--Arg--Gly--Arg--H, Succinoyl-D-Arg-Gly-Arg-H] (Suc-[dR]-Gly-Arg-aldehyde)", "values": [{"measurement": "IC50", "setting": "factor Xa; [3]", "result": 224, "unit": "nM"}]}
{"smiles": "CC(C)(C)OC(=O)N[C@H](CCCNC(=N)N)C(=O)NC(C)(C)C(=O)N[C@H](C=O)CCCNC(=N)N", "note": "[Boc--D--Arg--Aib--Arg--H, Boc-D-Arg-Aib-Arg-H] (Boc-[dR]-[Aib]-Arg-aldehyde)", "values": [{"measurement": "IC50", "setting": "factor Xa; [3]", "result": 552, "unit": "nM"}]}
{"smiles": "N=C(N)NCCC[C@@H](C=O)NC(=O)CNC(=O)[C@@H](CCCNC(=N)N)NS(=O)(=O)Cc1ccccc1", "note": "[PhCH2 SO2 --D--Arg--Gly--Arg--H, Benzylsulfonyl-D-Arg-Gly-Arg-H]", "values": [{"measurement": "IC50", "setting": "thrombin", "result": 33000, "unit": "nM"}]}
{"smiles": "C[C@@H](NC(=O)[C@@H](CCCNC(=N)N)NC(=O)OC(C)(C)C)C(=O)N[C@H](C=O)CCCNC(=N)N", "note": "[Boc--D--Arg--D--Ala--Arg--H, Boc-D-Arg-D-Ala-Arg-H] (Boc-[dR]-[dA]-Arg-aldehyde)", "values": [{"measurement": "IC50", "setting": "factor Xa; [3]", "result": 230, "unit": "nM"}]}
{"smiles": "N=C(N)NCCC[C@@H](C=O)NC(=O)CNC(=O)[C@@H](CCCNC(=N)N)NC(=O)COc1ccc2ccccc2c1", "note": "[2-NaphthoxyAc--D--Arg--Gly--Arg--H, 2-Napthoxyacetyl-D-Arg-Gly-Arg-H]", "values": [{"measurement": "IC50", "setting": "thrombin", "result": "> 100000", "unit": "nM"}]}
{"smiles": "CC(C)(C)OC(=O)N[C@H](CCCNC(=N)N)C(=O)NCC(=O)N[C@H](C=O)CCCNC(=N)N", "note": "[Boc--D--Arg--Gly--Arg--H, Boc-D-Arg-Gly-Arg-H] (Boc-[dR]-Gly-Arg-aldehyde)", "values": [{"measurement": "IC50", "setting": "factor Xa; [3]", "result": 50, "unit": "nM"}, {"measurement": "anticoagulative effect", "setting": "[1]; 2.0 mg/kg I.V. bolus", "result": "plasma concentration-dependent anticoagulative effect"}, {"measurement": "% Inhibition of Thrombosis", "setting": "[2]; 200 + 1.98 μg/kg + μg/kg/min", "result": 8.4, "unit": "%"}, {"measurement": "% Inhibition of Thrombosis", "setting": "[2]; 600 + 5.94 μg/kg + μg/kg/min", "result": -6.6, "unit": "%"}, {"measurement": "% Inhibition of Thrombosis", "setting": "[2]; 1000 + 9.90 μg/kg + μg/kg/min", "result": 58.6, "unit": "%"}, {"measurement": "% Inhibition of Thrombosis", "setting": "[2]; 1500 + 14.85 μg/kg + μg/kg/min", "result": 31.4, "unit": "%"}, {"measurement": "antithrombotic efficacy in the rabbit venous thrombosis model", "setting": "[2]; bolus + infusion, all doses evaluated", "result": "demonstrated antithrombotic efficacy at the higher doses evaluated"}]}
{"smiles": "CC(C)(C)OC(=O)N[C@H](CCCCN)C(=O)NCC(=O)N[C@H](C=O)CCCNC(=N)N", "note": "[Boc--D--Lys--Gly--Arg--H, Boc-D-Lys-Gly-Arg-H] (Boc-[dK]-Gly-Arg-aldehyde)", "values": [{"measurement": "IC50", "setting": "factor Xa; [3]", "result": 10000, "unit": "nM"}]}
{"smiles": "CC(C)(C)OC(=O)N[C@H](CCCNC(=N)N)C(=O)NCCC(=O)N[C@H](C=O)CCCNC(=N)N", "note": "[Boc--D--Arg--β-Ala--Arg--H, Boc-D-Arg-β-Ala-Arg-H]", "values": [{"measurement": "IC50", "setting": "thrombin; [4]", "result": "> 500000", "unit": "nM"}]}
{"smiles": "CCOC(=O)N[C@H](CCCN=C(N)N)C(=O)NCC(=O)N[C@H](C=O)CCCN=C(N)N", "note": "[EtOCO--D--Arg--Gly--Arg--H, EtO2 C-D-Arg-Gly-Arg-H]", "values": [{"measurement": "IC50", "setting": "factor Xa", "result": 49, "unit": "nM"}]}
{"smiles": "CN(C)C(=NCCCC[C@@H](NC(=O)OC(C)(C)C)C(=O)NCC(=O)N[C@H](C=O)CCCNC(=N)N)N(C)C", "note": "[Boc--D--Har((CH3)4)--Gly--Arg--H, Boc-D-Har((CH3)4)-Gly-Arg-H]", "values": [{"measurement": "IC50", "setting": "thrombin; [4]", "result": "> 100000", "unit": "nM"}]}
{"smiles": "C[C@H](NC(=O)[C@@H](CCCNC(=N)N)NC(=O)OC(C)(C)C)C(=O)N[C@H](C=O)CCCNC(=N)N", "note": "[Boc--D--Arg--Ala--Arg--H, Boc-D-Arg-Ala-Arg-H] (Boc-[dR]-Ala-Arg-aldehyde)", "values": [{"measurement": "IC50", "setting": "factor Xa; [3]", "result": 167, "unit": "nM"}]}
{"smiles": "N=C(N)NCCC[C@@H](C=O)NC(=O)CNC(=O)[C@@H](CCCNC(=N)N)NC(=O)CCc1ccccc1", "note": "[PhCH2 CH2 CO--D--Arg--Gly--Arg--H, 3-Phenylpropanoyl-D-Arg-Gly-Arg-H] (Hydrocinnamoyl-[dR]-Gly-Arg-aldehyde)", "values": [{"measurement": "IC50", "setting": "factor Xa; [3]", "result": 200, "unit": "nM"}, {"measurement": "IC50", "setting": "thrombin; [4]", "result": 75000, "unit": "nM"}, {"measurement": "IC50", "setting": "prothrombinase complex", "result": 2000, "unit": "nM"}]}
{"smiles": "N=C(N)NCCC[C@@H](C=O)NC(=O)CNC(=O)[C@@H](CCCNC(=N)N)NC(=O)CC(=O)O", "note": "[HOOCCH2 CO--D--Arg--Gly--Arg--H, Malonoyl-D-Arg-Gly-Arg-H]", "values": [{"measurement": "IC50", "setting": "factor Xa", "result": 98, "unit": "nM"}]}
{"smiles": "NC(N)=NCCC[C@@H](C=O)NC(=O)CNC(=O)[C@H](N)CCCN=C(N)N", "note": "[H--D--Arg--Gly--Arg--H, D-Arg-Gly-Arg-H] (H-[dR]-Gly-Arg-aldehyde)", "values": [{"measurement": "IC50", "setting": "factor Xa", "result": 64, "unit": "nM"}, {"measurement": "IC50", "setting": "thrombin", "result": 41000, "unit": "nM"}, {"measurement": "IC50", "setting": "prothrombinase complex", "result": 830, "unit": "nM"}]}
